The values that follow come from article PMC10054362, “Anti–Zika Virus Activity and Isolation of Flavonoids from Ethanol Extracts of Curatella americana L. Leaves” (Molecules, 2023).

One may read the CC50 as the concentration giving 50% cytotoxicity. In general, EC50 refers to the midpoint of the concentration-response curve.

In brackets after ≈: the same amount, converted by molar mass. Several values for one entry are separate records, joined by “and”; a condition that tells them apart may be missing. Identical values can stand only once. Like-named read-outs stand apart in the source and are kept apart here.

The nature of data set [1]: Cytotoxicity evaluation by MTT assay in MRC-5 cells. In kind it is cell-based, human. The note with it: human. How it is done:
(§1) The cytotoxicity of ethanolic extracts of stems, leaves, fractions, and substances isolated from the C. americana species was evaluated by the colorimetric MTT method in Vero cell lines (derived from African green monkey kidneys) and MRC-5 (derived from normal human lung tissue). The results of CC50 are described in Table 2.
(§2) Cell suspensions (Vero and MRC-5) were distributed in 96-well microplates containing 6.0 × 10^4 cells/well. The plates were incubated in a humidified 5% CO2 atmosphere at 37 °C for 24 h. Samples solubilized in dimethyl sulfoxide (DMSO) were diluted in culture medium supplemented with 1% SFB [48, 49]. Substance dilutions ranged from 800 to 0.125 µg/mL. After the formation of the cell monolayer on the surface of the wells, the culture medium was removed, and 100 μL of diluted sample solutions along with 100 μL of 1% SFB-enriched culture medium were added, and the plates were incubated under the same atmospheric condition. Seventy-two hours after the addition of samples, the culture medium was removed, and 28.0 μL of MTT solution (2.0 mg/mL in PBS) was added to each well, and the plates were incubated again for 120 min. At the end of this period, 132 μL of DMSO was added to all wells, and the plates were shaken on a plate shaker for 15 min to dissolve the formed formazan. Formazan quantification obtained by reducing tetrazolium salt in viable cells was performed on a Victor^TM X3 microplate reader® (PerkinElmer, Waltham, MA, USA) using the WorkOut 2.5 software at 490 nm. Cell multiplication was compared with cell control. Cell toxicity was expressed in terms of 50% cytotoxic concentration (CC50). The cytotoxic percentage was calculated as [(A-B)/A] × 100, where A and B are the optical densities at 490 nm (OD490) from the wells where untreated (A) and treated (B) cells are present, respectively.
(§3) Data from cytotoxicity and antiviral assays were evaluated according to their means and standard deviations. The cytotoxic concentration at 50% and the effective concentration at 50% were determined compared with the control obtained from nonlinear regression. […]
For orientation: Formazan colour is commonly taken as a measure of viable cells.

A short description of data set [2]: Cytotoxicity evaluation by MTT assay in Vero cells. It is filed as cell-based, African green monkey. The note with it: African green monkey. How it is done: (§4) The cytotoxicity of ethanolic extracts of stems, leaves, fractions, and substances isolated from the C. americana species was evaluated by the colorimetric MTT method in Vero cell lines (derived from African green monkey kidneys) and MRC-5 (derived from normal human lung tissue).
as §2
(§5) Data from cytotoxicity and antiviral assays were evaluated according to their means and standard deviations. […] These analyses were performed using the GraphPad Prism 5.04 statistical package® (GraphPad Software, Boston, MA, USA).

Data set [3] deals with Zika virus. As to the kind of experiment: Screening for anti-Zika virus activity by MTT colorimetric technique in infected Vero cells. In kind it is cell-based. The note with it: for EC50: ZIKV-infected Vero cells, MTT; for SI Vero: ratio of CC50 (Vero) to EC50. How it is done: After the determination of optimal noncytotoxic use concentrations, assays were performed, treating ZIKV-infected Vero cells with eight concentrations from the noncytotoxic concentrations for each sample. The results of the 50% effective concentration (EC50—concentration of the substance capable of reducing the viral cytopathic effect by 50%) and selectivity index (SI) are described in Table 2.
It was performed according to the methodology described by Brandão et al.. Sample stock solutions were prepared in DMSO (dimethyl sulfoxide) and evaluated at noncytotoxic concentrations. Vero cell monolayers were cultured in 96-well plates (6 × 10^4 cells per well). After 24 h of incubation in 5% CO2 at 37 °C, the culture medium (DMEM 5% SFB) was removed, and 100.0 μL of sample dilutions were added to each well along with 100.0 μL of the viral suspension. Then, the cultures were incubated in a humid atmosphere containing 5% CO2 at 37 °C for 72 h. Cell viability was assessed by the MTT colorimetric technique. The supernatant was removed, and then 28.0 μL of an MTT solution (2.0 mg/mL in PBS) was added to each well. The plates were incubated for 2 h at 37 °C, and after this incubation time, 132.0 μL DMSO was added to each well to dissolve the formazan crystals. The plates were stirred for 15 min (Shaker New Brunswick Scientific C24), and the optical density was determined at 490 nm (OD490) in a microplate reader.
The effective concentration that has 50% antiviral effect, or 50% effective concentration (EC50), is expressed as the concentration that promotes the protection of 50% of treated cells from destruction caused by the virus. The percentage of protection was calculated as [(AB)/CB)] × 100, where A, B, and C are the OD490 of the wells, in which are present treated and infected (A), untreated and infected (B), and untreated and non-infected cells (C), respectively.
Data from cytotoxicity and antiviral assays were evaluated according to their means and standard deviations. The cytotoxic concentration at 50% and the effective concentration at 50% were determined compared with the control obtained from nonlinear regression. These analyses were performed using the GraphPad Prism 5.04 statistical package® (GraphPad Software, Boston, MA, USA).

For data set [4], the system named is Zika virus. As to the kind of experiment: In vitro cytopathic effect inhibition assay in ZIKV-infected Vero cell monolayer. In kind it is cell-based. The note with it: Vero cells, MOI = 1, treated after infection, quercetin 20 µg/mL, leaf extract 85 µg/mL, photographed after 48 h. The method, then: This can be seen by the destruction and morphological alterations of the cells, such as rounding of cells, formation of lumps, and changes in cell refringence, especially when compared with the uninfected and untreated cell monolayer (Figure 4A).
Figure 4 Antiviral effect against Zika virus in Vero cells treated with ethanol extract of leaves and quercetin. Vero cells were infected with ZIKV, treated with ethanol extract of leaves/quercetin, and photographed after 48 h of infection. (A) Uninfected and untreated cells, (B) infected cells, (C) cells uninfected and treated with ethanol extract of leaves (85 µg/mL), (D) cells infected and treated with ethanol extract of leaves (85 µg/mL), (E) cells uninfected and treated with quercetin (20 µg/mL), (F) cells infected and treated with quercetin (20 µg/mL). Magnification, 100x.
In order to confirm the anti-ZIKV activity observed in the antiviral MTT assay, the Vero cell monolayer (9.5 × 10^6 cells per well) was infected by viral suspensions with titers of 1.0 × 10^7 TCID50/mL, (MOI = 1), Zika virus, during 1 h for the viral adsorption. Afterwards, the viral suspension was removed and the wells were washed with PBS. Then, the wells were treated with the active concentration of the compound (20 μg/mL) and ethanolic extract of leaves of C. americana (85 μg/mL). […]
For orientation: Cytopathic effects are the visible damage that an infection or toxin causes in cultured cells.

A further data set concerns MRC-5 cells. The data set is described as follows: Cytotoxicity evaluation by MTT assay in MRC-5 cells. It is filed as cell-based, human. The note with it: MTT, 72 h, n = 3. The method, then: as §1, §2, §3
Another data set relates to Vero cells. The data set is described as follows: Cytotoxicity evaluation by MTT assay in Vero cells. It is filed as cell-based, African green monkey. The note with it: MTT, 72 h, n = 3. How it is done:
as §4, §2, §5

[5] abbreviates: Zika virus, 72 h, n = 3, read-out: EC50 (converted).

In the case of `O=c1c(O[C@@H]2O[C@H](CO)[C@@H](O)[C@H](O)[C@H]2O)c(-c2ccc(O)c(O)c2)oc2cc(O)cc(O)c12` [Quercetin-3-O-glucoside], the CC50 at 72 h in data set [1] is > 100 µg/mL and > 216 µM; in data set [2] it was > 100 µg/mL and > 216 µM. The EC50 entry in the data set on Zika virus [3] (72 h, n = 3) is “Inactive”; in the data set with Zika virus [3] (setting [5]) it was over 100 µg/mL.

As for `O=c1c(O)c(-c2ccc(O)c(O)c2)oc2cc(O)cc(O)c12` [Quercetin], in data set [2] (MTT, 72 h, n = 3, read-out: CC50 Vero (converted)), the CC50 at 72 h is 71.3 µg/mL and 236 µM. Moreover, the EC50 in the data set on Zika virus [3] (setting [5]) was 18.6 µg/mL and 61.6 µM; in the data set with Zika virus [3] (Zika virus, read-out: EC50, inhibition of the viral cytopathic effect (abstract, unit inferred)) it was 18.6 ± 2.8 µg/mL (≈ 61.5 µM). Moreover, in the data set with Zika virus [3], the “SI Vero” value is given as 3.8. Moreover, the “protection of ZIKV-infected cell monolayer from viral cytopathic effect” value in the data set on Zika virus [4] is reported as “protect the cells from a virus infection”.

Consider `NC(=O)c1ncn([C@@H]2O[C@H](CO)[C@@H](O)[C@H]2O)n1` [Ribavirin, reference compound], for which the CC50 at 72 h in data set [2] (Vero cells, MTT, 72 h, n = 3, read-out: CC50 Vero (converted)) was 370.4 ± 1.2 µg/mL (≈ 1520 µM). For the same compound, in the data set with Zika virus [3] (setting [5]), the EC50 is 94.5 µg/mL and 387 µM.

As for Quercetin-3-O-hexosylgallate, in the data set with MRC-5 cells, the CC50 is over 162 µM and the “CC50 MRC-5” value is listed as over 100 µg/mL. Also, in the data set on Vero cells, half-maximal cytotoxicity (CC50) was put at 496 µM and the “CC50 Vero” value turned out to be 305.6 ± 1.4 µg/mL. Further, the “SI MRC-5” value with Zika virus [3] (ratio of CC50 (MRC-5) to EC50) is over 0.7. Besides, the “SI Vero” value in the data set on Zika virus [3] is 2.0.
